# Biological target: T1, full length human wildtype Btk (Homo sapiens, UniProt Q06187)
# T1 construct: V5 (C); 6xHis (C); made in house; host or cells: Sf9 cells (baculovirus, pFastBac)
# Experiment: Biochemical Btk Kinase Assay (Example 901)
# Details: read-out: BTK LC3K (Ki)
# Experimental: Formula I compounds were tested by a standard biochemical Btk, Kinase Assay (Example 901). A generalized procedure for a standard biochemical Btk, Kinase Assay that can be used to test Formula I compounds is as follows. A master mix minus Btk enzyme is prepared containing 1× Cell Signaling kinase buffer (25 mM Tris-HCl, pH 7.5, 5 mM beta-glycerophosphate, 2 mM dithiothreitol, 0.1 mM Na3VO4, 10 mM MgCl2), 0.5 μM Promega PTK Biotinylated peptide substrate 2, and 0.01% BSA. A master mix plus Btk enzyme is prepared containing 1× Cell Signaling kinase buffer, 0.5 μM (micromolar) PTK Biotinylated peptide substrate 2, 0.01% BSA, and 100 ng/well (0.06 mU/well) Btk enzyme. Btk enzyme is prepared as follows: full length human wildtype Btk (accession number NM-000061) with a C-terminal V5 and 6×His tag was subcloned into pFastBac® vector (Invitrogen/Life Technologies) for making baculovirus carrying this epitope-tagged Btk. Generation of baculovirus is done based on Invitrogen's instructions detailed in its published protocol “Bac-to-Bac Baculovirus Expression Systems” (Invitrogen/Life Technologies, Cat. Nos. 10359-016 and 10608-016). Passage 3 virus is used to infect Sf9 cells to overexpress the recombinant Btk protein. The Btk protein is then purified to homogeneity using Ni-NTA column. The purity of the final protein preparation is greater than 95% based on the sensitive Sypro-Ruby staining. A solution of 200 μM ATP is prepared in water and adjusted to pH 7.4 with 1N NaOH. A quantity of 1.25 μL (microliter) of compounds in 5% DMSO is transferred to a 96-well 2 area Costar polystyrene plate. Compounds are tested singly and with an 11-point dose-responsive curve (starting concentration is 10 μM; 1:2 dilution). A quantity of 18.75 μL of master mix minus enzyme (as a negative control) and master mix plus enzyme is transferred to appropriate wells in 96-well 2 area costar polystyrene plate. 5 μL of 200 μM ATP is added to that mixture in the 96-well 2 area Costar polystyrene plate for final ATP concentration of 40 μM. The reaction is allowed to incubate for 1 hour at room temperature. The reaction is stopped with Perkin Elmer 1× detection buffer containing 30 mM EDTA, 20 nM SA-APC, and 1 nM PT66 Ab. The plate is read using time-resolved fluorescence with a Perkin Elmer Envision using excitation filter 330 nm, emission filter 665 nm, and 2nd emission filter 615 nm. IC50 values are subsequently calculated. Alternatively, the Lanthascreen assay can be used to evaluate Btk activity through quantification of its phosphorylated peptide product. The FRET (Fluorescence Resonance Energy Transfer) that occurs between the fluorescein on the peptide product and the terbium on the detection antibody decreases with the addition of inhibitors of Btk that reduce the phosphorylation of the peptide. In a final reaction volume of 25 μL (microliters), Btk (h) (0.1 ng/25 μl reaction) is incubated with 50 mM Hepes pH 7.5, 10 mM MgCl2, 2 mM MnCl2, 2 mM DTT, 0.2 mM NaVO4, 0.01% BSA, and 0.4 uM fluorescein poly-GAT. The reaction is initiated by the addition of ATP to 25 μM (micromolar) the Km of ATP. After incubation for 60 minutes at room temperature, the reaction is stopped by the addition of a final concentration of 2 nM Tb-PY20 detection antibody in 60 mM EDTA for 30 minutes at room temperature. Detection is determined on a Perkin Elmer Envision with 340 nm excitation and emission at 495 nm and 520 nm. Exemplary Btk inhibition […] values are in Table 1.
# T1 sequence (Q06187 whole entry): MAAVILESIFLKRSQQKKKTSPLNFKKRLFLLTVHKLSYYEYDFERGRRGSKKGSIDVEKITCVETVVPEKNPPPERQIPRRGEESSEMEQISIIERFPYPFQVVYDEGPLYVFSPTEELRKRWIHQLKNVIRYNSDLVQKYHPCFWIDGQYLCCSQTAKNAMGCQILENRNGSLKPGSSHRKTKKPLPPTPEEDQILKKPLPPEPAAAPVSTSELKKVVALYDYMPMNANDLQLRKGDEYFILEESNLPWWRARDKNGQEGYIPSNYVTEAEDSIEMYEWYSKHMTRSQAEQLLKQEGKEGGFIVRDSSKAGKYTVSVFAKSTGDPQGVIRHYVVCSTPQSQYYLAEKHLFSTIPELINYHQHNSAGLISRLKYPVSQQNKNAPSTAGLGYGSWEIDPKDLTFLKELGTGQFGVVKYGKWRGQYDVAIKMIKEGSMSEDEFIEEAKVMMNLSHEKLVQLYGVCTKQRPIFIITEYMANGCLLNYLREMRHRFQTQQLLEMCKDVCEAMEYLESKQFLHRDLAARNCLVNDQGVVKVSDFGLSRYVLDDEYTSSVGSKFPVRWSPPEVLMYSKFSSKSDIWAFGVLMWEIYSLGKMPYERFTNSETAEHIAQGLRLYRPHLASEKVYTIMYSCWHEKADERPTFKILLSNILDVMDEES
row,Compound,Ki [nM]
1,"CC(C)(C)c1cc(F)c2c(=O)n(-c3nccc(-n4cc(C(N)=O)c(-c5ccccc5)n4)c3CO)ncc2c1 [Example 114, 1-[2-(6-tert-butyl-8-fluoro-1-oxo-phthalazin-2-yl)-3-(hydroxymethyl)-4-pyridyl]-3-phenyl-pyrazole-4-carboxamide]",184
2,"CC(=O)Nc1nn(-c2ccnc(N3CCn4c(cc5c4CC(C)(C)C5)C3=O)c2CO)cc1C(N)=O [Example 124, 3-acetamido-1-[2-(7,7-dimethyl-4-oxo-1,2,6,8-tetrahydrocyclopenta[3,4]pyrrolo[3,5-b]pyrazin-3-yl)-3-(hydroxymethyl)-4-pyridyl]pyrazole-4-carboxamide]",13.8
3,"C[C@H]1CN(C2COC2)CCN1c1ccc(Nc2nn(-c3ccnc(N4CCn5c(cc6c5CC(C)(C)C6)C4=O)c3CO)cc2C(N)=O)nc1 [Example 125, 1-[2-(7,7-dimethyl-4-oxo-1,2,6,8-tetrahydrocyclopenta[3,4]pyrrolo[3,5-b]pyrazin-3-yl)-3-(hydroxymethyl)-4-pyridyl]-3-[[5-[(2S)-2-methyl-4-(oxetan-3-yl)piperazin-1-yl]-2-pyridyl]amino]pyrazole-4-carboxamide]",0.296
4,"CN(C)CCNC(=O)c1cccc(-c2nn(-c3ccnc(-n4ncc5cc(C(C)(C)C)cc(F)c5c4=O)c3CO)cc2C(N)=O)c1 [Example 130, 1-[2-(6-tert-butyl-8-fluoro-1-oxo-phthalazin-2-yl)-3-(hydroxymethyl)-4-pyridyl]-3-[3-[2-(dimethylamino)ethylcarbamoyl]phenyl]pyrazole-4-carboxamide]",43.8
5,"CN1CCN(C(=O)c2ccc(-c3nn(-c4ccnc(-n5ncc6cc(C(C)(C)C)cc(F)c6c5=O)c4CO)cc3C(N)=O)cc2)CC1 [Example 131, 1-[2-(6-tert-butyl-8-fluoro-1-oxo-phthalazin-2-yl)-3-(hydroxymethyl)-4-pyridyl]-3-[4-(4-methylpiperazine-1-carbonyl)phenyl]pyrazole-4-carboxamide]",143
6,"CC(C)(C)c1cc(F)c2c(=O)n(-c3nccc(-n4cc(C(N)=O)c(-c5cnc6[nH]ccc6c5)n4)c3CO)ncc2c1 [Example 132, 1-[2-(6-tert-butyl-8-fluoro-1-oxo-phthalazin-2-yl)-3-(hydroxymethyl)-4-pyridyl]-3-(1H-pyrrolo[2,3-b]pyridin-5-yl)pyrazole-4-carboxamide]",> 500
7,"CC(C)Cn1cc(-c2nn(-c3ccnc(-n4ncc5cc(C(C)(C)C)cc(F)c5c4=O)c3CO)cc2C(N)=O)cn1 [Example 134, 1-[2-(6-tert-butyl-8-fluoro-1-oxo-phthalazin-2-yl)-3-(hydroxymethyl)-4-pyridyl]-3-(1-isobutylpyrazol-4-yl)pyrazole-4-carboxamide]",26.9
8,"CC(C)(C)c1cc(F)c2c(=O)n(-c3nccc(-n4cc(C(N)=O)c(-c5cnc6ccccc6c5)n4)c3CO)ncc2c1 [Example 140, 1-[2-(6-tert-butyl-8-fluoro-1-oxo-phthalazin-2-yl)-3-(hydroxymethyl)-4-pyridyl]-3-(3-quinolyl)pyrazole-4-carboxamide]",> 500
9,"CC(C)(C)c1cc(F)c2c(=O)n(-c3nccc(-n4cc(C(N)=O)c(-c5ccc(CO)cc5)n4)c3CO)ncc2c1 [Example 141, 1-[2-(6-tert-butyl-8-fluoro-1-oxo-phthalazin-2-yl)-3-(hydroxymethyl)-4-pyridyl]-3-[4-(hydroxymethyl)phenyl]pyrazole-4-carboxamide]",155
10,"CC(C)(C)c1cc(F)c2c(=O)n(-c3nccc(-n4cc(C(N)=O)c(-c5ccncc5)n4)c3CO)ncc2c1 [Example 143, 1-[2-(6-tert-butyl-8-fluoro-1-oxo-phthalazin-2-yl)-3-(hydroxymethyl)-4-pyridyl]-3-(4-pyridyl)pyrazole-4-carboxamide]",100
11,"CC(C)(C)c1cc(F)c2c(=O)n(-c3nccc(-n4cc(C(N)=O)c(-c5cccnc5)n4)c3CO)ncc2c1 [Example 144, 1-[2-(6-tert-butyl-8-fluoro-1-oxo-phthalazin-2-yl)-3-(hydroxymethyl)-4-pyridyl]-3-(3-pyridyl)pyrazole-4-carboxamide]",124

# Further lines, results first:
row,Ki [nM],Compound
1,124,"CC1(C)Cc2cc3n(c2C1)CCN(c1nccc(-n2cc(C(N)=O)cn2)c1CO)C3=O [Example 113, 1-[2-(7,7-dimethyl-4-oxo-1,2,6,8-tetrahydrocyclopenta[3,4]pyrrolo[3,5-b]pyrazin-3-yl)-3-(hydroxymethyl)-4-pyridyl]pyrazole-4-carboxamide]"
2,33.9,"CCCC(=O)Nc1nn(-c2ccnc(N3CCn4c(cc5c4CC(C)(C)C5)C3=O)c2CO)cc1C(N)=O [Example 128, 3-(butanoylamino)-1-[2-(7,7-dimethyl-4-oxo-1,2,6,8-tetrahydrocyclopenta[3,4]pyrrolo[3,5-b]pyrazin-3-yl)-3-(hydroxymethyl)-4-pyridyl]pyrazole-4-carboxamide]"
3,104,"CC(C)(C)c1cc(F)c2c(=O)n(-c3nccc(-n4cc(C(N)=O)c(-c5cnc(N)cn5)n4)c3CO)ncc2c1 [Example 129, 3-(5-aminopyrazin-2-yl)-1-[2-(6-tert-butyl-8-fluoro-1-oxo-phthalazin-2-yl)-3-(hydroxymethyl)-4-pyridyl]pyrazole-4-carboxamide]"
4,156,"CC(C)(C)c1cc(F)c2c(=O)n(-c3nccc(-n4cc(C(N)=O)c(-c5ccc(CN)cc5)n4)c3CO)ncc2c1 [Example 133, 3-[4-(aminomethyl)phenyl]-1-[2-(6-tert-butyl-8-fluoro-1-oxo-phthalazin-2-yl)-3-(hydroxymethyl)-4-pyridyl]pyrazole-4-carboxamide]"
5,15.6,"CN1CCN(c2ccc(-c3nn(-c4ccnc(-n5ncc6cc(C(C)(C)C)cc(F)c6c5=O)c4CO)cc3C(N)=O)cn2)CC1 [Example 135, 1-[2-(6-tert-butyl-8-fluoro-1-oxo-phthalazin-2-yl)-3-(hydroxymethyl)-4-pyridyl]-3-[6-(4-methylpiperazin-1-yl)-3-pyridyl]pyrazole-4-carboxamide]"
6,50.7,"CN1CCN(c2cc(-c3nn(-c4ccnc(-n5ncc6cc(C(C)(C)C)cc(F)c6c5=O)c4CO)cc3C(N)=O)ccn2)CC1 [Example 136, 1-[2-(6-tert-butyl-8-fluoro-1-oxo-phthalazin-2-yl)-3-(hydroxymethyl)-4-pyridyl]-3-[2-(4-methylpiperazin-1-yl)-4-pyridyl]pyrazole-4-carboxamide]"
7,115,"CC(=O)Nc1ccc(-c2nn(-c3ccnc(-n4ncc5cc(C(C)(C)C)cc(F)c5c4=O)c3CO)cc2C(N)=O)cn1 [Example 137, 3-(6-acetamido-3-pyridyl)-1-[2-(6-tert-butyl-8-fluoro-1-oxo-phthalazin-2-yl)-3-(hydroxymethyl)-4-pyridyl]pyrazole-4-carboxamide]"
8,82.7,"CC(C)(C)c1cc(F)c2c(=O)n(-c3nccc(-n4cc(C(N)=O)c(-c5ccc(O)nc5)n4)c3CO)ncc2c1 [Example 138, 1-[2-(6-tert-butyl-8-fluoro-1-oxo-phthalazin-2-yl)-3-(hydroxymethyl)-4-pyridyl]-3-(6-hydroxy-3-pyridyl)pyrazole-4-carboxamide]"
9,> 500,"CC(C)(C)c1cc(F)c2c(=O)n(-c3nccc(-n4cc(C(N)=O)c(-c5cncc(S(C)(=O)=O)c5)n4)c3CO)ncc2c1 [Example 139, 1-[2-(6-tert-butyl-8-fluoro-1-oxo-phthalazin-2-yl)-3-(hydroxymethyl)-4-pyridyl]-3-(5-methylsulfonyl-3-pyridyl)pyrazole-4-carboxamide]"
10,135,"CC(C)(C)c1cc(F)c2c(=O)n(-c3nccc(-n4cc(C(N)=O)c(-c5cncnc5)n4)c3CO)ncc2c1 [Example 142, 1-[2-(6-tert-butyl-8-fluoro-1-oxo-phthalazin-2-yl)-3-(hydroxymethyl)-4-pyridyl]-3-pyrimidin-5-yl-pyrazole-4-carboxamide]"

# Source: US20190194209A1, “PYRAZOLE CARBOXAMIDE COMPOUNDS AND METHODS OF USE” (Genentech, Inc., priority 2014, published 2019)
